Measurements published in patent publication US20230075765A1, “PYRROLO[2,3-D]PYRIMIDINE DERIVATIVE TARGETING EGFR MUTATION, AS WELL AS THE PREPARATIVE METHOD AND THE USE THEREOF” (WEST CHINA HOSPITAL, SICHUAN UNIVERSITY, priority 2020, published 2023).

System: H1975 cells
Assay: Cell cycle, PI staining, flow cytometry
Format: cell-based, human
Settings: for G2/M phase (%): 18 h (control 14.52); for S phase (%): 18 h (control 30.25); for G0/G1 phase (%): 18 h (control 55.23)
Description: A variety of different cells in the logarithmic growth phase were inoculated evenly in a 6-well plate at a concentration of 1×10^6 cells/well, 2 ml for each well, and then incubated overnight. Then, different compounds were added, and each compound was set different concentrations. After 18 h, the cells were collected, resuspended in PBS, and centrifuged to remove the supernatant, to which was then added 0.5 ml of pre-cooled 75% absolute ethanol dropwise, followed by vortexing to mix the cells and standing overnight at 4° C. The solution was centrifuged at 1000 rpm/min for 4 min, and the supernatant was discarded. Propidium iodide staining solution was prepared by using 5.6 ml staining buffer, 210 μl propidium iodide staining solution (25×), and 56 μl RNaseA (2.5 mg/ml). 0.4 ml of propidium iodide staining solution was added to each tube to resuspend the cells, and then incubated for 30 min at room temperature in the dark. The cell suspension was gently pipetted to mix, filtered into a flow tube, and stored in the dark at 4° C. The cells were detected on the flow cytometer within 1 h.

For `C=CC(=O)Nc1cccc(Oc2nc(Nc3ccc(N4CCN(C)CC4)c([N+](=O)[O-])c3)nc3[nH]ccc23)c1` [Compound 5], the “ratio of cells in the G0/G1 phase compared with the control group (in words)” value was “significantly higher”, the “G2/M phase (%)” value (0.5 μM) was 9.17% and the “S phase (%)” value (0.5 μM) was 4.64%. The “G0/G1 phase (%)” value (0.5 μM) was 86.20%, the “G2/M phase (%)” value (5 μM) was 11.64% and the “S phase (%)” value (5 μM) was 14.04%. For the same compound, the “G0/G1 phase (%)” value (5 μM) was 74.33%.
In the case of `C=CC(=O)Nc1cccc(Oc2nc(Nc3ccc(N4CCN(C)CC4)c(N)c3)nc3[nH]ccc23)c1` [Compound 6], the “ratio of cells in the G0/G1 phase compared with the control group (in words)” value was “significantly higher”, the “G2/M phase (%)” value (0.5 μM) was 10.49% and the “S phase (%)” value (0.5 μM) was 5.28%. For the same compound, the “G0/G1 phase (%)” value (0.5 μM) was 84.24%, the “G2/M phase (%)” value (5 μM) was 13.18% and the “S phase (%)” value (5 μM) was 10.59%. The “G0/G1 phase (%)” value (5 μM) was 76.23%.
